Experimental data published in publication PMC12063423, “Identification of the methionine transporter MetQ in Streptococcus suis and its contribution to virulence and biofilm formation” (Veterinary Research, 2025).

Target: T1, MetQ (SSU1577) (Streptococcus suis, UniProt A0A0H3N1C6)
T1 construct: gene SSUBM407_1651; mature protein aa 31-283 without signal peptide (1-29) and lipobox Cys30; codon-optimised, pET16b, E. coli BL21(DE3); full-length precursor 283 aa
Test: isothermal titration calorimetry, one-site model
Assay type: binding
Conditions: PBS pH 7.3, 25 °C; 38.8 µM protein in cell, 200 µM ligand in syringe

T1 sequence (A0A0H3N1C6 entry or part of it): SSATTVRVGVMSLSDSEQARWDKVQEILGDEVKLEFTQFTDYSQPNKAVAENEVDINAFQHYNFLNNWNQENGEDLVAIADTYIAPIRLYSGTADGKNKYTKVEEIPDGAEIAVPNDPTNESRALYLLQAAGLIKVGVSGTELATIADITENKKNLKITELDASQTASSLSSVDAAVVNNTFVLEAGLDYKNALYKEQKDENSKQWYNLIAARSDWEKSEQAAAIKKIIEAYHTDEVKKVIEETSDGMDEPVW

SMILES: CSCC[C@H](N)C(=O)O [L-methionine]
- Kd: 7.1 µM
